According to patent publication US10544156B2, “Hemi-synthetic trilobine analogs for use as a drug” (PIERRE FABRE MEDICAMENT, priority 2015, dated 2020):
Like-named read-outs stand apart in the source and are kept apart here.

Molecular target: T1, human C-terminal DNMT3A (623-908a.a.) (Homo sapiens, UniProt Q9Y6K1)
T1 construct: The human C-terminal DNMT3A (623-908a.a.); made in house
Test: hDNMT3A assay (restriction-based fluorescence assay)
Format: biochemical
Conditions: for inhibition at 10 µM: read-out: hDNMT 3A inhibition, Inhibition (%) 10 μM; for inhibition at 32 µM: read-out: hDNMT 3A inhibition, Inhibition (%) 32 μM
From the text: hDNMT3A enzyme inhibition was adapted from the restriction-based fluorescence assay protocol as described in the literature (Ceccaldi et al. Chem Bio Chem 2011, 12, 1337-1345). Briefly, a 5′-labelled biotin oligonucleotide is hybridized to its complementary strand labelled with 6-carboxyfluorescein at the 3′-end into a 384 well microplate (black Optiplates; Perkin Elmer) pre-coated with avidin. The duplex contains a unique CpG site overlapping with a restriction site of a methylation sensitive restriction enzyme. The human C-terminal DNMT3A (623-908a.a.), produced as described in (Gros et al. Nucl. Acids Res. 2013, 41(19):e185), was added in each well (200 ng/well) and mixed with the chemical compounds at desired concentrations and freshly prepared SAM (20 μM final concentration) to start the reaction in a total volume of 50 μL. After 1 hour incubation at 37° C. each well were washed three times with PBS, Tween-20 0.05%, NaCl (500 mM) and three more times with PBST. Specific fluorescent signals were detected with the methylation-sensitive restriction enzyme HpyCH4IV (NEB) as described and measured on a Perkin Elmer Envision detector. The percentage of inhibition is reported. The formula used to calculate the percentage of inhibition is [(X−Y)/X]×100, where X is the signal determined in the absence of the inhibitor and Y is the signal obtained in the presence of the inhibitor. The concentration at which 50% of efficacy of inhibition is observed (EC50) was determined by analysis of a concentration range of the tested compound in triplicates. The non-linear regression fittings with sigmoidal dose-response (variable slope) were performed with GraphPad Prism 4.03 (GraphPad Software).

[1] = concentration at which 50% of efficacy of inhibition is observed, read-out: EC50 (μM), hDNMT 3A inhibition
[2] = interval line below the EC50 of the same compound, read-out: EC50 (μM), range given

T1 sequence (Q9Y6K1 627-912 limits assumed): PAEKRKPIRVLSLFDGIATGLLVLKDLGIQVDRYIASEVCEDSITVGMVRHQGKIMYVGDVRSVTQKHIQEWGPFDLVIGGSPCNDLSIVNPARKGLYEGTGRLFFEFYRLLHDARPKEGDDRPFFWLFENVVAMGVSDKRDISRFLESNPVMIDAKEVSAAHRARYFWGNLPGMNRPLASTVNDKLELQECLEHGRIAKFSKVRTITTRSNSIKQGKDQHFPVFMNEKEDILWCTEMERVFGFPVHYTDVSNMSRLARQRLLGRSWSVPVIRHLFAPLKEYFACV

Structure (SMILES) | inhibition at 10 µM [%] | inhibition at 32 µM [%] | EC50 [1] [µM] | EC50 [2] [µM]
COc1ccc2cc1Oc1ccc(cc1)CC1c3c(cc(OC)c4c3Oc3cc5c(cc3O4)CCN(C)[C@H]5C2)CCN1C=O (stereo partly shown) [Product 10] | 17 | 72 | – | –
COc1ccc2cc1Oc1ccc(cc1)C[C@H]1c3c(cc(OC)c4c3Oc3cc5c(cc3O4)CCN(C)[C@H]5C2)CCN1C(N)=O [Product 11] | 43 | 77 | – | –
CCN(CC)CCCNC(=S)N1CCc2cc(OC)c3c4c2[C@@H]1Cc1ccc(cc1)Oc1cc(ccc1OC)C[C@H]1c2cc(c(cc2CCN1C)O3)O4 [Product 12] | 78 | 93 | 2.67 to 3.8 | –
COc1ccc2cc1Oc1ccc(cc1)C[C@H]1c3c(cc(OC)c4c3Oc3cc5c(cc3O4)CCN(C)[C@H]5C2)CCN1S(C)(=O)=O [Product 13] | 39 | 45 | – | –
CNC(=S)N1CCc2cc(OC)c3c4c2[C@@H]1Cc1ccc(cc1)Oc1cc(ccc1OC)C[C@H]1c2cc(c(cc2CCN1C)O3)O4 [Product 14] | 93 | 96 | 1.91 | 1.15 to 3.18
COc1ccc2cc1Oc1ccc(cc1)C[C@H]1c3c(cc(OC)c4c3Oc3cc5c(cc3O4)CCN(C)[C@H]5C2)CCN1C#N [Product 15] | 46 | 50 | – | –
COc1ccc2cc1Oc1ccc(cc1)C[C@H]1c3c(cc(OC)c4c3Oc3cc5c(cc3O4)CCN(C)[C@H]5C2)CCN1CCC#N [Product 16] | 56 | 77 | – | –
COc1ccc2cc1Oc1ccc(cc1)C[C@H]1c3c(cc(OC)c4c3Oc3cc5c(cc3O4)CCN(C)[C@H]5C2)CCN1CC#N [Product 17] | 69 | 79 | – | –
COc1ccc2cc1Oc1ccc(cc1)C[C@H]1c3c(cc(OC)c4c3Oc3cc5c(cc3O4)CCN(C)[C@H]5C2)CCN1C(=O)OCCCCn1cnc2c(N)ncnc21 [Product 18] | 66 | 66 | – | –
COc1ccc2cc1Oc1ccc(cc1)C[C@H]1c3c(cc(OC)c4c3Oc3cc5c(cc3O4)CCN(C)[C@H]5C2)CCN1C(=O)OCCCn1cnc2c(N)ncnc21 [Product 19] | 67 | 71 | – | –
COc1ccc2cc1Oc1ccc(cc1)C[C@H]1c3c(cc(OC)c4c3Oc3cc5c(cc3O4)CCN(CC#N)[C@H]5C2)CCN1C [Product 20] | 50 | 66 | – | –
COc1ccc2cc1Oc1ccc(cc1)C[C@H]1c3c(cc(OC)c4c3Oc3cc5c(cc3O4)CCN(CC#N)[C@H]5C2)CCN1CC#N [Product 21] | 32 | 82 | – | –
COc1ccc2cc1Oc1ccc(cc1)C[C@H]1c3c(cc(OC)c4c3Oc3cc5c(cc3O4)CCN(CCC#N)[C@H]5C2)CCN1C [Product 22] | 60 | 64 | – | –
COc1ccc2cc1Oc1ccc(cc1)C[C@H]1c3c(cc(OC)c4c3Oc3cc5c(cc3O4)CCN(CCCn3cnc4c(N)ncnc43)[C@H]5C2)CCN1C [Product 24] | 42 | 77 | – | –
COc1ccc2cc1Oc1ccc(cc1)C[C@H]1c3c(cc(OC)c4c3Oc3cc5c(cc3O4)CCN(CCCCn3cnc4c(N)ncnc43)[C@H]5C2)CCN1C [Product 25] | 46 | 72 | – | –
COc1ccc2cc1Oc1ccc(cc1)C[C@H]1c3c(cc(OC)c4c3Oc3cc5c(cc3O4)CCN(C)[C@H]5C2)CCN1CCCCn1cnc2c(N)ncnc21 [Product 27] | 21 | 67 | – | –
COc1ccc2cc1Oc1ccc(cc1)C[C@H]1c3c(cc(OC)c4c3Oc3cc5c(cc3O4)CCN(C)[C@H]5C2)CCN1CCCn1cnc2c(N)ncnc21 [Product 28] | 18 | 60 | – | –
COc1ccc2cc1Oc1ccc(cc1)CC1c3c(cc(OC)c4c3Oc3cc5c(cc3O4)CCN(C)[C@H]5C2)CCN1C(=O)C1CCC(CN2C(=O)C=CC2=O)CC1 (stereo partly shown) [Product 30] | 66 | 88 | 4.19 to 9.36 | –
C=CC(=O)N1CCc2cc(OC)c3c4c2C1Cc1ccc(cc1)Oc1cc(ccc1OC)C[C@H]1c2cc(c(cc2CCN1C)O3)O4 (stereo partly shown) [Product 31] | 43 | 79 | – | –
COc1ccc2cc1Oc1ccc(cc1)CC1c3c(cc(OC)c4c3Oc3cc5c(cc3O4)CCN(C)[C@H]5C2)CCN1C(=O)CCCl (stereo partly shown) [Product 32] | 57 | 82 | 5.34 to 6.87 | –
COc1ccc2cc1Oc1ccc(cc1)CC1c3c(cc(OC)c4c3Oc3cc5c(cc3O4)CCN(C)[C@H]5C2)CCN1C(=O)/C=C/CN(C)C (stereo partly shown) [Product 33] | 32 | 87 | – | –
CNC(=O)N1CCc2cc3c4cc2[C@@H]1Cc1ccc(OC)c(c1)Oc1ccc(cc1)C[C@H]1c2c(cc(OC)c(c2O4)O3)CCN1C(=O)NC [Product 43] | 24 | 49 | – | –
CNC(=O)N1CCc2cc3c4cc2[C@@H]1Cc1ccc(OC)c(c1)Oc1ccc(cc1)C[C@H]1c2c(cc(OC)c(c2O4)O3)CCN1C [Product 45] | 31 | 73 | – | –
CNC(=S)N1CCc2cc3c4cc2[C@@H]1Cc1ccc(OC)c(c1)Oc1ccc(cc1)C[C@H]1c2c(cc(OC)c(c2O4)O3)CCN1C [Product 46] | 7 | 52 | – | –
CNC(=S)N1CCc2cc3c4cc2[C@@H]1Cc1ccc(OC)c(c1)Oc1ccc(cc1)C[C@H]1c2c(cc(OC)c(c2O4)O3)CCN1C(=S)NC [Product 47] | 10 | 40 | – | –
CCN(CC)CCCNC(=O)N1CCc2cc(OC)c3c4c2[C@@H]1Cc1ccc(cc1)Oc1cc(ccc1OC)C[C@H]1c2cc(c(cc2CCN1C)O3)O4 [Product 49] | 60 | 75 | 6.1 | 3.72 to 10
CCN(CC)CCCNC(=O)N1CCc2cc3c4cc2[C@@H]1Cc1ccc(OC)c(c1)Oc1ccc(cc1)C[C@H]1c2c(cc(OC)c(c2O4)O3)CCN1C [Product 50] | 69 | 91 | 2.06 | 1.28 to 3.31
CNC(=O)N1CCc2cc(OC)c3c4c2[C@@H]1Cc1ccc(cc1)Oc1cc(ccc1OC)C[C@@H]1NCCc2cc(c(cc21)O4)O3 [Product 51] | 2 | 69 | – | –
COc1cc2c3c4c1Oc1cc5c(cc1O4)[C@H](Cc1ccc(OS(=O)(=O)C(F)(F)F)c(c1)Oc1ccc(cc1)C[C@@H]3N(C)CC2)N(C)CC5 [Product 54] | 0 | 32 | – | –
